Results taken from patent publication US9096643B2, “Cell-protective peptides and uses thereof” (priority 2010, dated 2015).
No end group written: not given here.

What was measured:
[1] = test system: neonatal rat CMs (heart cells); test: Heart cell attachment on peptide-modified Az-chitosan coated coverslips (brightfield cell counts); type: cell-based, rat (Sprague-Dawley); settings: coated glass coverslips, 1, 3 and 5 days of incubation, FIG. 1
Method: Neonatal (1 to 2 day-old) Sprague-Dawley rats were euthanized according to the procedure approved by the University of Toronto Committee on Animal Care. […] The supernatant from 5 collagenase digests of the tissues was collected and centrifuged at 750 rpm (94 g) for 4 min, resuspended in culture medium and pre-plated into T75 flasks (Falcon) for 1 hour to separate the non-adherent cells (enriched CMs) from the adherent cells (non-myocytes). The enriched CMs were used in the studies. The CM culture medium consisted of Dulbecco's Modified Eagle Medium (DMEM) with 4.5 g/L glucose, 4 mM L-glutamine, 10% certified fetal bovine serum (FBS), 100 U/mL penicillin, 100 μg/mL streptomycin, and 10 mM 4-2-hydroxyethyl-1-piperazineethanesulfonic acid buffer (HEPES, Gibco/Invitrogen).
The surfaces used for microscopy analysis were created on circular 12 mm diameter glass coverslips (VWR). These were plasma treated (WS-400BZ-6NPP/Lite, Laurell Technologies) for 30 s. […]
The day before cells were ready to be seeded, the surfaces in the 12-well plates were sterilized by germicidal UV illumination overnight. […]
Brightfield images were taken with 10× magnification of surfaces with cells (N=3) to visualize the morphology and cell attachment (IX81, Olympus). […] The number of cells was then counted using the cell counting plug-in on ImageJ (NIH version 1.36b).

[2] = test system: neonatal rat CMs (heart cells); test: Preliminary 3D cell encapsulation studies in hydrogels; type: cell-based, rat (Sprague-Dawley); settings: encapsulated, 1 to 4 days of 3D culture
Method: The lyophilized form of the peptide-modified Az-chitosan was dissolved in sterile 0.9% saline at 12 mg/mL. CMs (2.5×10^6) were suspended in 15 μL of CM culture media with 30% serum for 15 minutes on ice. These cells were then suspended in 35 μL of the hydrogel and crosslinked in the transwell inserts of the 96 well plates. The cells were cultivated in the CM culture medium with 10% FBS for up to 4 days.

[3] = test system: human iPS cells 0901B; test: iPS colony formation / cloning efficiency after complete dissociation at clonal density; type: cell-based; settings: 50 μM, trypsinized, clonal density, one week, FIG. 13B
Method: (§1) The human iPS cells (BJ1D and 0901B) were obtained from the Ontario iPSC Facility and used following the hiPS cell research guidelines of the University of Toronto as described by Hotta et al. Nat. Protoc. 4, 1828-1844 (2009)), unless specified otherwise. Cells were cultured on a feeder layer of MEF cells (Mount Sinai Hospital Toronto, inactivated with 10 μg/ml mitomycin C and seeded at 1.8×10^5 per 3.5 cm dish). For single cell cultures, hiPS cell colonies were dissociated in 0.25% Trypsin-EDTA (Invitrogen) for 5 min, followed by trituration with a pipette. To ensure a single-cell suspension, the dissociated cells were passed through a 40 μm cell strainer (BD Falcon) and seeded onto MEF plates at 10 cells/ml, 10 cm plates. Cells were allowed to grow for 7 days and the total number of colonies was counted. In the treated groups, QHREDGS (Biomatik) or DGQESHR (Biomatik) dissolved in PBS (Lonza), were added at the reported concentrations to culture media at the onset of the first treatment passage and replenished with each media change. Media was changed by 100% every day. Peptides and controls were included during dissociation and passaging. Cells were analyzed after 5 passages in continuous treatment with 50 μM QHREDGS, 50 μM DGQESHR, or PBS, unless specified otherwise.
(§2) iPS cells, BJ1D or 0901B were treated with 50 μM of QHREDGS peptide, or 50 μM DGQESHR scrambled peptide in PBS with a PBS treated control for five passages as a preparation for passage by trypsin. Cells were trypsinized and plated at a clonal density of 10 cells/ml for one week and the number of colonies were counted.
(§3) After 5 passages in pre-treatment with 50 μM QHREDGS, or controls and complete dissociation (trypsinized), human iPS cells, BJ1D or 0901B cells, were plated on a mouse embryonic fibroblast (MEF) feeder layer at low density (100 cells/plate, 10 cm plate) in maintenance medium containing 50 μM QHREDGS, PBS, or 50 μM DGQESHR scrambled peptide. After one-week in culture, untreated or DGQESHR (scrambled peptide) treated groups generated few colonies, whereas QHREDGS treated groups for both BJ1D or 0901B cells produced many large colonies (˜15 times more than the controls) (see FIG. 13A/B, respectively). The colonies were positive for Oct4, a marker for the undifferentiated state. The cloning efficiency, based on ratio of Oct4+ colonies formed per initially seeded human iPS cells, was 27+/−7.1% and 2.5+/−0.6% for BJ1D and 48+/−9.4% and 22.3+/−1.9 for 0901B in the presence and absence of QHREDGS, respectively. […] Thus, treatment with QHREDGS supports single-cell culture of human iPS cells through the promotion of colony formation.

[4] = test system: human iPS cells BJ1D; test: as above; type: cell-based; settings: 50 μM, trypsinized, clonal density, one week, FIG. 13A
Method: as §1, §2, §3

[5] = test system: Rat neonatal cardiomyocytes; test: ATP assay (CellTiter-Glo) in serum-starved cardiomyocytes; type: cell-based; settings: 1 d
Method: Rat neonatal cardiomyocytes were incubated with PBS (control), 500 μM QHREDGS, scrambled QHREDGS peptide, GRGDSP peptide or 400 nM ang 1 or ang2 in DMEM/0.5% BSA/cytosine-β-D-arabinofuranoside (37° C., 5% CO2, 1 d). ATP levels were quantified using the CellTiter-Glo Luminescent Assay (Promega) as per manufacturer's instructions (N=6/group). Luminescence was measured using a Wallac 1420 microplate reader.

[6] = test system: neonatal rat cardiomyocytes; test: Cardiomyocyte encapsulation in chitosan hydrogels, live/dead staining after 6 days; type: cell-based; settings: peptide conjugated to Az-chitosan hydrogel, in vitro cultivation
Method: The lyophilized form of the peptide-modified Az-chitosan (Az-chitosan-QHREDGS or Az-chitosan-RGDS) was dissolved in sterile 0.9% PBS at 12 mg/mL. Cardiomyocytes (2.5×10^6) were suspended in 15 μL 30% FBS-containing culture medium for 15 min. on ice. These cells were further suspended in 35 μL of the hydrogel. This mixture was placed on a 12 mm diameter glass coverslip, which was placed on a UV lamp (UVP, 365 nm, 1 mW/cm^2 at 3″ distance, 115 V, 60 Hz, 0.16 Amp) and exposed to UV light for 5 min. The samples were then transferred to a 12 well plate and supplemented with 2 mL of warm cardiomyocyte culture media.
Live/dead staining was performed using 5-carboxyfluorescein diacetate acetoxymethly ester, which stains live cells green, and propidium iodide, which stains dead cells red according to the manufacturer's instruction (Invitrogen). Three sets of surfaces were analyzed for each sample type.

[7] = test system: Rat neonatal cardiomyocytes; test: Hydrogen peroxide treatment, Trypan blue viability (monolayer); type: cell-based; settings: 200 nM ang 1 1.5 hr, 100 μM H2O2 10 min, FIG. 5A
Method: Rat neonatal cardiomyocytes were incubated for 1.5 hr with 500 μM QHREDGS, scrambled (scram) QHREDGS peptide (DGQESHR), or PBS control (PBS); 200 nM ang 1 or its matched buffer control [0.1% bovine serum albumin (BSA) in PBS] in the culture medium. The culture medium consisted of Dulbecco's Modified Eagle's Medium (DMEM) with 0.5% BSA and cytosine-β-D-arabinofuranoside (anti-proliferative). Reactive oxygen species were increased by addition of 100 μM H2O2 for 10 min (37° C., 5% CO2) (N=6/group). Cell viability was measured using a Trypan blue stain. Trypan blue dye is impermeable to viable cells, but enters dead/damaged cells with impaired membrane integrity, staining cells blue.

Az-chitosan-DGQESHR: scrambled QHREDGS peptide conjugated to Az-chitosan (also: conjugated to Az-chitosan, site not given here) [reference compound]
cell adhesion / cell attachment to coated surface [1]: did not have the same attachment results
heart cell survival and elongation in 3D hydrogel [2]: a large number of dead round cells

DGQESHR [scrambled QHREDGS peptide control, reference compound]
number of colonies [3]: few colonies
number of colonies [4]: few colonies
cardiac myocyte ATP levels ([5]; 500 μM peptide): no such effect

GRGDSP [RGD-based peptides, reference compound]
cardiac myocyte ATP levels ([5]; 500 μM peptide): no such effect

QHREDGS (angiopoietin 1 peptide)
syncytium formation of encapsulated cardiomyocytes [6]: formation of a dense syncytium

B1: Angiopoietin 1 (protein, UniProt Q15389 1-498, looked up)
chain: MTVFLSFAFLAAILTHIGCSNQRRSPENSGRRYNRIQHGQCAYTFILPEHDGNCRESTTDQYNTNALQRDAPHVEPDFSSQKLQHLEHVMENYTQWLQKLENYIVENMKSEMAQIQQNAVQNHTATMLEIGTSLLSQTAEQTRKLTDVETQVLNQTSRLEIQLLENSLSTYKLEKQLLQQTNEILKIHEKNSLLEHKILEMEGKHKEELDTLKEEKENLQGLVTRQTYIIQELEKQLNRATTNNSVLQKQQLELMDTVHNLVNLCTKEGVLLKGGKREEEKPFRDCADVYQAGFNKSGIYTIYINNMPEPKKVFCNMDVNGGGWTVIQHREDGSLDFQRGWKEYKMGFGNPSGEYWLGNEFIFAITSQRQYMLRIELMDWEGNRAYSQYDRFHIGNEKQNYRLYLKGHTGTAGKQSSLILHGADFSTKDADNDNCMCKCALMLTGGWWFDACGPSNLNGMFYTAGQNHGKLNGIKWHYFKGPSYSLRSTTMMIRPLDF
modifications: full-length
notes: full length parent protein of QHREDGS
cardiomyocyte viability after exposure to H2O2 [7]: maintain cardiomyocyte viability
cardiac myocyte ATP levels ([5]; 400 nM protein): substantially increased

B2: ang2: ang2 protein comparator in the ATP assay (protein, UniProt O15123 19-496, looked up)
Angiopoietin-2: YNNFRKSMDSIGKKQYQVQHGSCSYTFLLPEMDNCRSSSSPYVSNAVQRDAPLEYDDSVQRLQVLENIMENNTQWLMKLENYIQDNMKKEMVEIQQNAVQNQTAVMIEIGTNLLNQTAEQTRKLTDVEAQVLNQTTRLELQLLEHSLSTNKLEKQILDQTSEINKLQDKNSFLEKKVLAMEDKHIIQLQSIKEEKDQLQVLVSKQNSIIEELEKKIVTATVNNSVLQKQQHDLMETVNNLLTMMSTSNSAKDPTVAKEEQISFRDCAEVFKSGHTTNGIYTLTFPNSTEEIKAYCDMEAGGGGWTIIQRREDGSVDFQRTWKEYKVGFGNPSGEYWLGNEFVSQLTNQQRYVLKIHLKDWEGNEAYSLYEHFYLSSEELNYRIHLKGLTGTAGKISSISQPGNDFSTKDGDNDKCICKCSQMLTGGWWFDACGPSNLNGMYYPQRQNTNKFNGIKWYYWKGSGYSLKATTMMIRPADF
cardiac myocyte ATP levels ([5]; 400 nM protein): no such effect
